Toxic doses and inconclusive results are not listed. Cut-off read from the data, not from the text of the source: active = T/C of 150% or more; inactive = T/C below 125%.
Test system: L1210 leukemia ip in BDF1 mice, survival T/C
Assay: NCI In Vivo Anticancer Drug Screen. Data for tumor model L1210 Leukemia (intraperitoneal) in B6D2F1 (BDF1) mice
Details: endpoint: mean survival time, higher = longer survival
Outline: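 Tumor was transplanted into mice, which were then dosed with test compound or vehicle alone. Survival was recorded for each group, and the treated figure was expressed relative to the control figure.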

[1] = dose: 100.0 mg/kg/injection, schedule: Q01DX001 (ip), vehicle: carboxymethylcellulose (CMC)
[2] = dose: 200.0 mg/kg/injection, schedule: Q01DX001 (ip), vehicle: carboxymethylcellulose (CMC)
[3] = dose: 400.0 mg/kg/injection, schedule: Q01DX001 (ip), vehicle: carboxymethylcellulose (CMC)
[4] = dose: 100.0 mg/kg/injection, schedule: Q01DX009 (ip), vehicle: Klucel (hydroxypropylcellulose) (HPC)
[5] = dose: 100.0 mg/kg/injection, schedule: Q04DX003 (ip), vehicle: Klucel (hydroxypropylcellulose) (HPC)
[6] = dose: 200.0 mg/kg/injection, schedule: Q01DX009 (ip), vehicle: Klucel (hydroxypropylcellulose) (HPC)
[7] = dose: 200.0 mg/kg/injection, schedule: Q04DX003 (ip), vehicle: Klucel (hydroxypropylcellulose) (HPC)
[8] = dose: 400.0 mg/kg/injection, schedule: Q01DX009 (ip), vehicle: Klucel (hydroxypropylcellulose) (HPC)
[9] = dose: 400.0 mg/kg/injection, schedule: Q04DX003 (ip), vehicle: Klucel (hydroxypropylcellulose) (HPC)
[10] = dose: 100.0 mg/kg/injection, schedule: Q04DX003 (ip), vehicle: saline with Tween-80
[11] = dose: 200.0 mg/kg/injection, schedule: Q04DX003 (ip), vehicle: saline with Tween-80
[12] = dose: 100.0 mg/kg/injection, schedule: Q01DX001 (ip), vehicle: saline
[13] = dose: 200.0 mg/kg/injection, schedule: Q01DX001 (ip), vehicle: saline
[14] = dose: 400.0 mg/kg/injection, schedule: Q01DX001 (ip), vehicle: saline
[15] = dose: 100.0 mg/kg/injection, schedule: Q04DX003 (ip), vehicle: saline
[16] = dose: 200.0 mg/kg/injection, schedule: Q04DX003 (ip), vehicle: saline
[17] = dose: 400.0 mg/kg/injection, schedule: Q04DX003 (ip), vehicle: saline
[18] = dose: 100.0 mg/kg/injection, schedule: Q04DX002 (ip), vehicle: saline with Tween-80
[19] = dose: 200.0 mg/kg/injection, schedule: Q04DX002 (ip), vehicle: saline with Tween-80
[20] = dose: 100.0 mg/kg/injection, schedule: Q01DX009 (ip), vehicle: saline
[21] = dose: 200.0 mg/kg/injection, schedule: Q01DX009 (ip), vehicle: saline

Measured: T/C

CC(=O)NC1CON=C1OS(=O)(=O)c1ccc(C)cc1 (stereo unspecified)
inactive: dose: 100.0 mg/kg/injection, schedule: Q01DX001 (ip), vehicle: saline with Tween-80 89 % of control | dose: 200.0 mg/kg/injection, schedule: Q01DX001 (ip), vehicle: saline with Tween-80 89 % of control | dose: 400.0 mg/kg/injection, schedule: Q01DX001 (ip), vehicle: saline with Tween-80 100 % of control

COc1ccc(Oc2ccccc2)cc1-c1ccccc1
inactive: [1] 93 % of control | [2] 102 % of control | [3] 96 % of control

O=C(CCN1CC2CCC(CC2)C1)c1csc2ccccc12
inactive: dose: 88.8 mg/kg/injection, schedule: Q01DX001 (ip), vehicle: carboxymethylcellulose (CMC) 93 % of control | [1] 91 % of control | dose: 133.4 mg/kg/injection, schedule: Q01DX001 (ip), vehicle: carboxymethylcellulose (CMC) 98 % of control | [2] 97 % of control | dose: 300.0 mg/kg/injection, schedule: Q01DX001 (ip), vehicle: carboxymethylcellulose (CMC) 95 % of control | [3] 107 % of control

CC1=C[S+](c2ccccc2)c2cccc3cc4ccccc4c1c23 (stereo unspecified)
inactive: dose: 2.5 mg/kg/injection, schedule: Q01DX009 (ip), vehicle: saline with Tween-80 119 % of control

CC(C)(C)C(=O)CC(=O)C(C)(C)C.CC(C)(C)C(=O)CC(=O)C(C)(C)C.CC(C)(C)C(=O)CC(=O)C(C)(C)C.[Al]
inactive: [4] 91 % of control | [5] 91 % of control | [6] 94 % of control | [7] 94 % of control | [8] 97 % of control | [9] 95 % of control

CC1(C)CS(=O)(=O)CC1=O
inactive: dose: 3.0 mg/kg/injection, schedule: Q01DX009 (ip), vehicle: other 103 % of control | dose: 6.0 mg/kg/injection, schedule: Q01DX009 (ip), vehicle: other 102 % of control | dose: 12.0 mg/kg/injection, schedule: Q01DX009 (ip), vehicle: other 94 % of control | dose: 12.0 mg/kg/injection, schedule: Q04DX003 (ip), vehicle: saline 98 % of control | dose: 25.0 mg/kg/injection, schedule: Q01DX009 (ip), vehicle: other 100 % of control | dose: 25.0 mg/kg/injection, schedule: Q04DX003 (ip), vehicle: saline 101 % of control | dose: 50.0 mg/kg/injection, schedule: Q01DX009 (ip), vehicle: other 96 % of control | dose: 50.0 mg/kg/injection, schedule: Q04DX003 (ip), vehicle: saline 106 % of control

NC(=O)CN1C(=O)C2C3C=CC(C3)C2C1=O (stereo unspecified)
inactive: [10] 97 % of control | [11] 109 % of control | dose: 400.0 mg/kg/injection, schedule: Q04DX003 (ip), vehicle: saline with Tween-80 97 % of control

O=c1[nH]c(/C=C/c2ccc(Cl)cc2)nc(O)c1-c1ccc(Cl)cc1
inactive: [12] 104 % of control | [5] 102 % of control | [13] 98 % of control | [7] 96 % of control | [14] 93 % of control | [9] 98 % of control

CSc1ccc(NC(=O)/C=C/c2ccccc2)cc1
inactive: [4] 106 % of control | [6] 112 % of control | [8] 102 % of control

CC1(c2cccs2)C(=O)NC(=O)N1C(=O)CCl (stereo unspecified)
inactive: dose: 100.0 mg/kg/injection, schedule: Q01DX009 (ip), vehicle: saline with Tween-80 109 % of control | [10] 103 % of control | dose: 200.0 mg/kg/injection, schedule: Q01DX009 (ip), vehicle: saline with Tween-80 106 % of control | [11] 99 % of control

CC(=O)Nc1ccc(S(=O)(=O)Cl)cc1
inactive: dose: 75.0 mg/kg/injection, schedule: Q01DX001 (ip), vehicle: other 94 % of control | [15] 108 % of control | dose: 150.0 mg/kg/injection, schedule: Q01DX001 (ip), vehicle: other 88 % of control | [16] 92 % of control | [17] 90 % of control

NC(=S)N/N=C1\C=CCCC1
inactive: dose: 50.0 mg/kg/injection, schedule: Q01DX001 (ip), vehicle: carboxymethylcellulose (CMC) 111 % of control

CCOC=Nc1c(C)c[n+]([O-])nc1OC
inactive: dose: 12.5 mg/kg/injection, schedule: Q04DX002 (ip), vehicle: saline 102 % of control | dose: 25.0 mg/kg/injection, schedule: Q04DX002 (ip), vehicle: saline 102 % of control | dose: 50.0 mg/kg/injection, schedule: Q04DX002 (ip), vehicle: saline 98 % of control

O=C(CCN1CC1)Nc1ccc(Cl)c(Cl)c1
inactive: dose: 20.0 mg/kg/injection, schedule: Q04DX003 (ip), vehicle: Klucel (hydroxypropylcellulose) (HPC) 88 % of control | dose: 25.0 mg/kg/injection, schedule: Q01DX009 (ip), vehicle: Klucel (hydroxypropylcellulose) (HPC) 98 % of control | dose: 40.0 mg/kg/injection, schedule: Q04DX003 (ip), vehicle: Klucel (hydroxypropylcellulose) (HPC) 98 % of control | dose: 50.0 mg/kg/injection, schedule: Q01DX009 (ip), vehicle: Klucel (hydroxypropylcellulose) (HPC) 101 % of control | dose: 80.0 mg/kg/injection, schedule: Q04DX003 (ip), vehicle: Klucel (hydroxypropylcellulose) (HPC) 92 % of control | [5] 86 % of control

Cn1c2c(c3ccccc31)CC(C(C)(C)C)CC2 (stereo unspecified)
inactive: dose: 50.0 mg/kg/injection, schedule: Q04DX002 (ip), vehicle: saline with Tween-80 107 % of control | [18] 100 % of control | [19] 97 % of control

CCCCOC(=S)Nc1ccc(S(=O)(=O)c2ccc(NC(=S)OCCCC)cc2)cc1
inactive: [12] 108 % of control | [13] 102 % of control | [14] 104 % of control

C1OC2CC3CC1C2C3 (stereo unspecified)
inactive: dose: 10.0 mg/kg/injection, schedule: Q01DX001 (ip), vehicle: acetone 107 % of control | dose: 20.0 mg/kg/injection, schedule: Q01DX001 (ip), vehicle: acetone 104 % of control | dose: 40.0 mg/kg/injection, schedule: Q01DX001 (ip), vehicle: acetone 98 % of control

O=[N+]([O-])c1cc2c(cc1Br)C1C(C3C2C(Cl)(Cl)C(Cl)=C(Cl)C3(Cl)Cl)C(Cl)(Cl)C(Cl)=C(Cl)C1(Cl)Cl (stereo unspecified)
inactive: [12] 95 % of control | [13] 100 % of control | [14] 94 % of control

COc1ccc2c(c1)C/C(=N\O)C2=O
inactive: [10] 102 % of control

CN1CN(c2ccccc2)C2(CCN(c3nc4ccccc4s3)CC2)C1=O
inactive: dose: 100.0 mg/kg/injection, schedule: Q01DX001 (ip), vehicle: Klucel (hydroxypropylcellulose) (HPC) 91 % of control | dose: 200.0 mg/kg/injection, schedule: Q01DX001 (ip), vehicle: Klucel (hydroxypropylcellulose) (HPC) 94 % of control | dose: 400.0 mg/kg/injection, schedule: Q01DX001 (ip), vehicle: Klucel (hydroxypropylcellulose) (HPC) 96 % of control

O=C1c2cccc3cccc(c23)C1(Br)C(Br)c1ccccc1 (stereo unspecified)
inactive: [18] 97 % of control | [19] 97 % of control | dose: 400.0 mg/kg/injection, schedule: Q04DX002 (ip), vehicle: saline with Tween-80 97 % of control

CCCCCCCOC(=O)COc1ccc(Cl)cc1Cl
inactive: dose: 100.0 mg/kg/injection, schedule: Q04DX002 (ip), vehicle: Klucel (hydroxypropylcellulose) (HPC) 90 % of control | dose: 200.0 mg/kg/injection, schedule: Q04DX002 (ip), vehicle: Klucel (hydroxypropylcellulose) (HPC) 87 % of control | dose: 400.0 mg/kg/injection, schedule: Q04DX002 (ip), vehicle: Klucel (hydroxypropylcellulose) (HPC) 97 % of control

Cc1ccccc1Nc1c(C)cccc1C(=O)O
inactive: [20] 100 % of control | [21] 92 % of control | dose: 400.0 mg/kg/injection, schedule: Q01DX009 (ip), vehicle: saline 86 % of control

Cc1cc(C)c(O)c(CN(Cc2cc(C)cc(C)c2O)C2CCCCC2)c1
inactive: [12] 96 % of control | [13] 88 % of control | [14] 88 % of control

CC(O)C(C)(O)C(=O)O (stereo unspecified)
inactive: [20] 100 % of control | [15] 104 % of control | [21] 90 % of control | [16] 95 % of control | [17] 101 % of control
